These results are taken from patent US8969304B2, “Compositions and methods for the prevention of cancer in high risk patients” (The Institute for Cancer Research, priority 2010, dated 2015).

Residues, ends and D or L forms follow the SMILES beside them. No end group written: not given here.

The test system of series [1] is MCF-10F cells. The note with it: cells treated with E2; cited from earlier work.
Another series has as its system CXCR1. The experiment in a line: real time RT-PCR, CXCR1 gene expression. Format: cell-based, human. For orientation: Real-time PCR tracks product formation cycle by cycle.
The test system of another series is GPR30. The experiment in a line: real time RT-PCR, GPR30 gene expression. To be noted: treated MCF-10F cells, data not shown. Format: cell-based, human.
In series [2] the target is T1, LH/hCG binding to rat ovarian membranes (Rattus norvegicus, UniProt P16235).
T1 construct: from tissue; host or cells: rat ovarian membranes
To be noted: among two series of overlapping peptides of hCG (ref. 15); cited from earlier work.

A further series deals with LHCGR. As to the kind of experiment: real time RT-PCR, LHCGR gene expression. Format: cell-based, human.
The subject of another series is FAK/AKT/FOXO3A pathway. As to the kind of experiment: FAK, AKT and FOXO3A expression (unpublished data). To be noted: previous results. Format: cell-based.
For series [3], the system named is MCF-10F cells. Format: cell-based, human.
The test system of series [4] is E2-transformed MCF-10F cells. The experiment in a line: solid mass formation and branching of E2-transformed MCF-10F cells in collagen. Format: cell-based, human. To be noted: compared with r-hCG.
A further series deals with T2, LH/hCG-R in MA-10 cells (Mus musculus, UniProt P30730).
T2 construct: endogenous in cells; host or cells: MA-10 mouse Leydig tumor cells
The experiment in a line: intracellular cAMP production (enzyme immunoassay). Format: cell-based. To be noted: 2.5 μg r-hCG/ml or 20 μM PPFC-879-81-95. Background: Changes in cAMP serve as a functional read-out for many G protein-coupled receptors.

For series [5], the system named is E2-transformed MCF-10F cells. The experiment in a line: invasiveness (cells traversing a matrigel membrane). Format: cell-based, human. The text has this: (§1) FIG. 2: (A) Effect of 17b-estradiol (E2), r-hCG and PPFC-879-81-95 peptide on formation of primary, secondary, and tertiary ducts by MCF10F cells grown in a collagen matrix. DMSO served as control. Ordinate, percentage of structures. (B) Effect of r-hCG and hCG peptide on colony formation. Only DMSO-treated (control) E2-cells formed solid masses. (C) Effect of r-hCG and hCG peptide on the invasive index of MCF10F, E2-transformed, E2T4, MCF-7 and MDA-MB-435 cells. Ordinate, number of cells traversing a matrigel membrane.
(§2) The cells grow along hollow branches forming ductules lined by a monolayer of epithelial cells. […] For these studies, we designed oligopeptides of the hCG beta subunit and had them synthesized by AAPPTec, LLC, Louisville, Ky. We selected a 15 aa peptide with a sequence “N”-[…]-“C” (SEQ ID NO: 2) that encompasses aa 81-95 and was designated PPFC-879-81-95.

The next series concerns MCF-7. The description is as above. Format: cell-based, human.
Source text: as §1, §2

The subject of series [6] is MCF-10F cells. The series is described as above. Format: cell-based, human.
Source text: as §1, §2

Another series deals with tumor derived E2T4 cells. The description is as above. Format: cell-based, human.
Source text: as §1, §2

A further series concerns MDA-MB-435. Described as above. Format: cell-based, human.
Source text: as §1, §2

Series [7] deals with MCF-10F cells. As to the kind of experiment: ductulogenesis and branching of MCF-10F cells in 3D collagen matrix. Format: cell-based, human. The note with it: MCF-10F cells in collagen matrix, added to the culture medium.
Source text: as §2

In series [8] the test system is human breast epithelial cells. The experiment in a line: genomic analysis of r-hCG and peptide-treated cells. Format: cell-based. The text has this:
The down-regulation of BMI1 supports the concept that the preventive effect of hCG results from the shifting of the stem cell 1 to stem cell 2 (Russo, J., et al., (2006) Front Biosci., 11:151-172). This is only one example of identification of the molecular determinants of hormone specificity which provide the means to target the CG/LH-R for activation thereby conferring the protective effects against breast cancer.

A further series concerns the target T3, LH/hCG-R in MCF10F cells (Homo sapiens, UniProt P22888).
T3 construct: For verifying the presence and functionality of the receptor in normal and transformed MCF10F cells; endogenous in cells; host or cells: MCF10F human breast epithelial cells
As to the kind of experiment: intracellular cAMP production (enzyme immunoassay). Format: cell-based. The note with it: 2.5 μg r-hCG/ml or 20 μM PPFC-879-81-95.

T1 sequence (P16235 27-700): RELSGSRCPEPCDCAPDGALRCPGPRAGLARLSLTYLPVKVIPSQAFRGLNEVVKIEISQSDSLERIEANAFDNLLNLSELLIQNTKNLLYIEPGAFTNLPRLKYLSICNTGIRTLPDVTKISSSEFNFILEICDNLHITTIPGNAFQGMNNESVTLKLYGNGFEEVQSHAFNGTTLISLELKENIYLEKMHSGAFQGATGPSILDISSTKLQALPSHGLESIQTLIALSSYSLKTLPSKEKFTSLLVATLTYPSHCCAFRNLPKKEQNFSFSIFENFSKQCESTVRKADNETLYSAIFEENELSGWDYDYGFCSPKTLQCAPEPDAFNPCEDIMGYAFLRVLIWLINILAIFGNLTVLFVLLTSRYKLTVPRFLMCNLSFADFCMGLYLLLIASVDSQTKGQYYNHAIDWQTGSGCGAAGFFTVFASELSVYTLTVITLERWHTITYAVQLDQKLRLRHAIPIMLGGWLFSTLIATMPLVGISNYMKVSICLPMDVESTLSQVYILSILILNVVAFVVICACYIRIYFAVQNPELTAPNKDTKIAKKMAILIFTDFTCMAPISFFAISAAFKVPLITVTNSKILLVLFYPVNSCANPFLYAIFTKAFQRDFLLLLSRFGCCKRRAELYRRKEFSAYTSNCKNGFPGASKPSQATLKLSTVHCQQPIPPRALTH
T2 sequence (P30730 27-700): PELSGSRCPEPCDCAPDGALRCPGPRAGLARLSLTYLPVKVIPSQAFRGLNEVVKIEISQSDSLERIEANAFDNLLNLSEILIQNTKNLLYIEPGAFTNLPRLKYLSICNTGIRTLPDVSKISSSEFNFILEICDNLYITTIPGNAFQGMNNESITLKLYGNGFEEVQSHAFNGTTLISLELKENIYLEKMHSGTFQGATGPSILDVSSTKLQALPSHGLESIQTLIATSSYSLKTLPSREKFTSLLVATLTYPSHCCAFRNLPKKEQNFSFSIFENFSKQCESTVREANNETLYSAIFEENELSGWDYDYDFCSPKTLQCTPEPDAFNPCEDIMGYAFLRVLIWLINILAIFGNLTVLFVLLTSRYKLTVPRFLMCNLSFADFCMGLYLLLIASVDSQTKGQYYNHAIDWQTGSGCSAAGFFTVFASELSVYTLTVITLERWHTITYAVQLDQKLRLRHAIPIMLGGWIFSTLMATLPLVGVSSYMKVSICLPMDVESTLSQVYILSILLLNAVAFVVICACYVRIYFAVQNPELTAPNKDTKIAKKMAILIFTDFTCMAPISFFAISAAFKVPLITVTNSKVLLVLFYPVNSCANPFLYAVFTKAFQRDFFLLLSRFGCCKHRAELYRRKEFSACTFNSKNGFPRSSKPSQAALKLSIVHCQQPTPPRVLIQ
T3 sequence (P22888 27-699): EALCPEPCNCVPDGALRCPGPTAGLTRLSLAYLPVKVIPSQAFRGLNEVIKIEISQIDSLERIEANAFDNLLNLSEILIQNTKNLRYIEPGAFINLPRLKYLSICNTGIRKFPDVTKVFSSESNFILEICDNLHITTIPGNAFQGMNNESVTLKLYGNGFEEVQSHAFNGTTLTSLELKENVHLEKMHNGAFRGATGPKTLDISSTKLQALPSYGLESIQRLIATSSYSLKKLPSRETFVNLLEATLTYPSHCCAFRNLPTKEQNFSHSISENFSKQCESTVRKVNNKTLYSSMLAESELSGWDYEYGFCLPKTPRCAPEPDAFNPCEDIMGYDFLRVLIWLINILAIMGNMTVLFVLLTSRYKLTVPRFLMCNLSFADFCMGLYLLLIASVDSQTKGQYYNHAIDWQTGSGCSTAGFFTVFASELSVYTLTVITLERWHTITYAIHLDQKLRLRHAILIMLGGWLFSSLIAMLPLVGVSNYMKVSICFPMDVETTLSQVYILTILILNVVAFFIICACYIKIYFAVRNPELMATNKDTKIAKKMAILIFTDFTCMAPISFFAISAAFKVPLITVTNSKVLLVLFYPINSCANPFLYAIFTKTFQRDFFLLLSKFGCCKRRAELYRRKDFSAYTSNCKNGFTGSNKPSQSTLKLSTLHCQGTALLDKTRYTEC

With `C[C@]12CC[C@@H]3c4ccc(O)cc4CC[C@H]3[C@@H]1CC[C@@H]2O` [E2, 17-β-estradiol], the “structures formed by MCF-10F cells in collagen after treatment” value in the series with MCF-10F cells [1] is given as “forming instead spherical structures with a multilayered epithelium that exhibits marked atypia”.
Regarding `CC(C)C[C@H](NC(=O)[C@H](C)NC(=O)[C@@H](NC(=O)[C@@H]1CCCN1C(=O)[C@H](Cc1ccccc1)NC(=O)[C@@H](N)CO)C(C)C)C(=O)N[C@@H](CO)C(=O)N[C@@H](CS)C(=O)N[C@@H](CCCNC(=N)N)C(=O)N[C@@H](CS)C(=O)NCC(=O)N1CCC[C@H]1C(=O)N[C@@H](CS)C(=O)N[C@@H](CCCNC(=N)N)C(=O)N[C@@H](CCCNC(=N)N)C(N)=O` [peptide, SFP VAL SCR CGP CRR-NH2] (H-SFPVALSCRCGPCRR-NH2; N-terminus assumed), the CXCR1 expression result with CXCR1 (MCF-10F, all along the treatment) is “down-regulated”. In addition, in the series with CXCR1 (last day of treatment (15), p<0.01), the “CXCR1 down-regulation, peptide versus hCG” value was “down-regulation of the receptor was more apparent in the peptide-treated cells than in hCG treated cells”. In addition, in the series on GPR30, the “GPR30 mRNA expression” value is on record as “undetectable or very low values”. Further, the “inhibition of 125I-labeled hCG binding” value in series [2] is given as “most potent inhibitor of LH/hCG binding”. In addition, the “hCG receptor (LHCGR) gene expression” value in the series on LHCGR (MCF-10F, from the first day of treatment on) is listed as “up-regulated”. For the same compound, the “LHCGR gene expression, peptide versus hCG” value with LHCGR (last day of treatment (15th), p=0.06) was “tendency of the peptide to induce a higher levels gene expression than hCG”. In the series on FAK/AKT/FOXO3A pathway, the “FAK and AKT” value was “decrease”; the FOXO3A expression entry was “up-regulate”. Moreover, the “cell proliferation inhibition, peptide versus hCG” value in the series on MCF-10F cells [3] (days 10 and 12, p<0.02) is reported as “more potent cell proliferation inhibitor than hCG”. Further, the “decrease in the number of viable cells” value in the series on MCF-10F cells [3] (human, 20 μM) is on record as 36-72%.
Consider “Ser-Tyr-Ala-Val-Ala-Leu-Ser-Cys-Gln-Cys-Ala-Leu-Cys-Arg-Arg (NH2) (SYAVALSCQCALCRR-NH2; cysteine pairing not given here) [PPFC-879-81-95, 15 aa peptide of the hCG beta subunit, aa 81-95]”, for which the “formation of solid masses in collagen” value in [4] is “abrogated more efficiently than r-hCG”. Besides, the “intracellular cAMP production” value in the series with LH/hCG-R in MA-10 cells and with LH/hCG-R in MCF10F cells was “time-dependent increase” each time. In addition, the invasiveness result (in [5]; in the series on MCF-7; in the series on MCF-10F cells [6]; with tumor derived E2T4 cells; with MDA-MB-435) was “inhibited invasiveness” each time. The “number of secondary and tertiary ducts (branching pattern)” value with MCF-10F cells [7] was “increasing the number of secondary and tertiary ducts”. Further, the “gene clusters activated or downregulated” value in series [8] is recorded as “induced activation or downregulation of the same clusters of genes that were modified by either parity or r-hCG treatment”.
